System: MV-4-11 cells
Assay: Gene expression microarray analysis (Affymetrix PrimeView) and GSEA
Format: cell-based, human
Design: RFU PODN (11730768_x_at) / Fold change /veh PODN (11730768_x_at) / RFU LINC00158 (11744669_a_at) / Fold change /veh LINC00158 (11744669_a_at) / RFU DUSP10 (11751237_a_at) / Fold change /veh DUSP10 (11751237_a_at) / RFU ID3 (11757404_x_at) / Fold change /veh ID3 (11757404_x_at) / RFU PLEKHG5 (11737974_s_at) / Fold change /veh PLEKHG5 (11737974_s_at) / RFU LRRC4B (11730491_at) / Fold change /veh LRRC4B (11730491_at) / RFU GIMAP4 (11747438_a_at) / Fold change /veh GIMAP4 (11747438_a_at) / RFU KRT8 (11758183_x_at) / Fold change /veh KRT8 (11758183_x_at) / RFU CNN1 (11734310_a_at) / Fold change /veh CNN1 (11734310_a_at) / RFU VPS37D (11726825_at) / Fold change /veh VPS37D (11726825_at) / RFU C10orf10 (11716522_x_at) / Fold change /veh C10orf10 (11716522_x_at) / RFU KIR2DL2 /// KIR2DL4 /// KIR2DL5A /// KIR2DL5B /// KIR2DS1 /// KIR2DS2 /// KIR2DS3 /// KIR2DS4 /// KIR3DL3 /// KIR3DL3 /// KIR3DS1 (11738374_at) / Fold change /veh KIR2DL2 /// KIR2DL4 /// KIR2DL5A /// KIR2DL5B /// KIR2DS1 /// KIR2DS2 /// KIR2DS3 /// KIR2DS4 /// KIR3DL3 /// KIR3DL3 /// KIR3DS1 (11738374_at) / RFU C1QL1 (11718748_at) / Fold change /veh C1QL1 (11718748_at) / RFU TMPRSS4 (11747572_a_at) / Fold change /veh TMPRSS4 (11747572_a_at) / RFU HAMP (11756126_x_at) / Fold change /veh HAMP (11756126_x_at) / RFU RNFT2 (11725882_a_at) / Fold change /veh RNFT2 (11725882_a_at) / RFU NR4A2 (11747474_a_at) / Fold change /veh NR4A2 (11747474_a_at) / RFU ABCC12 (11746883_a_at) / Fold change /veh ABCC12 (11746883_a_at) / RFU TMEM136 (11760407_x_at) / Fold change /veh TMEM136 (11760407_x_at) / RFU CLDN22 /// WWC2 (11732394_at) / Fold change /veh CLDN22 /// WWC2 (11732394_at) / RFU HLA-DPB1 (11760878_x_at) / Fold change /veh HLA-DPB1 (11760878_x_at) / RFU SPINT1 (11716480_a_at) / Fold change /veh SPINT1 (11716480_a_at) / RFU GAP43 (11754022_s_at) / Fold change /veh GAP43 (11754022_s_at) / RFU A4GNT (11735810_at) / Fold change /veh A4GNT (11735810_at) / RFU PRB3 (11715151_x_at) / Fold change /veh PRB3 (11715151_x_at) / RFU TUBB4B (11761932_at) / Fold change /veh TUBB4B (11761932_at) / RFU CAPN14 (11732068_a_at) / Fold change /veh CAPN14 (11732068_a_at) / RFU TMCC2 (11721928_a_at) / Fold change /veh TMCC2 (11721928_a_at) / RFU IRGQ (11745062_a_at) / Fold change /veh IRGQ (11745062_a_at) / RFU FAM174B (11720279_a_at) / Fold change /veh FAM174B (11720279_a_at) / RFU TMPRSS4 (11748680_a_at) / Fold change /veh TMPRSS4 (11748680_a_at) / RFU FAM212B (11763350_a_at) / Fold change /veh FAM212B (11763350_a_at) / RFU PLEKHG5 (11743358_a_at) / Fold change /veh PLEKHG5 (11743358_a_at) / RFU ZSCAN30 (11745921_a_at) / Fold change /veh ZSCAN30 (11745921_a_at) / RFU CMKLR1 (11741424_a_at) / Fold change /veh CMKLR1 (11741424_a_at) / RFU LOC101060620 /// MAPK8IP1 (11723275_at) / Fold change /veh LOC101060620 /// MAPK8IP1 (11723275_at) / RFU SPTSSB (11747773_x_at) / Fold change /veh SPTSSB (11747773_x_at) / RFU PRSS12 (11739890_at) / Fold change /veh PRSS12 (11739890_at) / RFU BIN1 (11741810_x_at) / Fold change /veh BIN1 (11741810_x_at) / RFU WNT11 (11732464_a_at) / Fold change /veh WNT11 (11732464_a_at) / RFU C10orf10 (11716521_a_at) / Fold change /veh C10orf10 (11716521_a_at) / RFU C5orf56 (11738089_at) / Fold change /veh C5orf56 (11738089_at) / RFU CYB561 (11721691_x_at) / Fold change /veh CYB561 (11721691_x_at) / RFU ANKRD19P (11752326_a_at) / Fold change /veh ANKRD19P (11752326_a_at) / RFU OR2T12 /// OR2T33 /// OR2T8 (11738714_s_at) / Fold change /veh OR2T12 /// OR2T33 /// OR2T8 (11738714_s_at) / RFU VCAN (11748164_a_at) / Fold change /veh VCAN (11748164_a_at) / RFU JSRP1 (11732532_at) / Fold change /veh JSRP1 (11732532_at) / RFU KRTAP10-11 (11738290_x_at) / Fold change /veh KRTAP10-11 (11738290_x_at) / RFU MYO3A (11730013_a_at) / Fold change /veh MYO3A (11730013_a_at) / RFU EBF3 (11725865_a_at) / Fold change /veh EBF3 (11725865_a_at) / RFU CAMK2N1 (11719241_x_at) / Fold change /veh CAMK2N1 (11719241_x_at) / RFU C5orf56 (11738088_a_at) / Fold change /veh C5orf56 (11738088_a_at) / RFU OLFML3 (11715873_a_at) / Fold change /veh OLFML3 (11715873_a_at) / RFU LOC100653217 /// NTM (11731650_a_at) / Fold change /veh LOC100653217 /// NTM (11731650_a_at) / RFU MAPK11 (11762145_a_at) / Fold change /veh MAPK11 (11762145_a_at) / RFU FIZ1 (11724087_x_at) / Fold change /veh FIZ1 (11724087_x_at) / RFU OASL (11726364_x_at) / Fold change /veh OASL (11726364_x_at) / RFU SOX15 (11748057_x_at) / Fold change /veh SOX15 (11748057_x_at) / RFU CD79A (11719716_a_at) / Fold change /veh CD79A (11719716_a_at) / RFU HIST1H1D (11736915_at) / Fold change /veh HIST1H1D (11736915_at) / RFU CASKIN2 (11723855_a_at) / Fold change /veh CASKIN2 (11723855_a_at) / RFU LOC730098 (11760151_x_at) / Fold change /veh LOC730098 (11760151_x_at) / RFU OR4N2 (11742367_at) / Fold change /veh OR4N2 (11742367_at) / RFU PRRT2 (11749266_a_at) / Fold change /veh PRRT2 (11749266_a_at) / RFU SNX32 (11753110_a_at) / Fold change /veh SNX32 (11753110_a_at) / RFU CDHR5 (11726645_a_at) / Fold change /veh CDHR5 (11726645_a_at) / RFU RCAN1 (11760418_a_at) / Fold change /veh RCAN1 (11760418_a_at) / RFU FAM167A (11723789_a_at) / Fold change /veh FAM167A (11723789_a_at) / RFU FAM26E (11764081_at) / Fold change /veh FAM26E (11764081_at) / RFU ISYNA1 (11749810_s_at) / Fold change /veh ISYNA1 (11749810_s_at) / RFU ACY1 (11761880_at) / Fold change /veh ACY1 (11761880_at) / RFU 11764098_at / Fold change /veh 11764098_at / RFU SAMD14 (11745864_x_at) / Fold change /veh SAMD14 (11745864_x_at) / RFU NPB (11741838_a_at) / Fold change /veh NPB (11741838_a_at) / RFU TMPRSS6 (11731388_a_at) / Fold change /veh TMPRSS6 (11731388_a_at) / RFU KRTAP10-2 (11738614_at) / Fold change /veh KRTAP10-2 (11738614_at) / RFU ARHGAP8 /// PRR5-ARHGAP8 (11727945_x_at) / Fold change /veh ARHGAP8 /// PRR5-ARHGAP8 (11727945_x_at) / RFU KRTAP5-7 /// NADSYN1 (11734609_at) / Fold change /veh KRTAP5-7 /// NADSYN1 (11734609_at) / RFU RASL12 (11751679_a_at) / Fold change /veh RASL12 (11751679_a_at) / RFU CDKN2B (11736163_a_at) / Fold change /veh CDKN2B (11736163_a_at) / RFU PRF1 (11729649_at) / Fold change /veh PRF1 (11729649_at) / RFU, ZNF638 /// ZNF638-IT1 / Fold change vs veh, ZNF638 /// ZNF638-IT1 / RFU, PANK3 / Fold change vs veh, PANK3 / RFU, SH3YL1 / Fold change vs veh, SH3YL1 / RFU, ZEB2 / Fold change vs veh, ZEB2 / RFU, NRIP1 / Fold change vs veh, NRIP1 / RFU, PTTG1IP / Fold change vs veh, PTTG1IP / RFU, CAPN2 / Fold change vs veh, CAPN2 / RFU, MED14 / Fold change vs veh, MED14 / RFU, SNORA58 / Fold change vs veh, SNORA58 / RFU, C1orf63 / Fold change vs veh, C1orf63 / RFU, LRRFIP1 / Fold change vs veh, LRRFIP1 / RFU, NDUFAF7 / Fold change vs veh, NDUFAF7 / RFU, SLC12A2 / Fold change vs veh, SLC12A2 / RFU, IBTK / Fold change vs veh, IBTK / RFU, ESF1 / Fold change vs veh, ESF1 / Fold change vs veh, TMEM50B / RFU, TAOK1 / Fold change vs veh, TAOK1 / RFU, ACBD3 / Fold change vs veh, ACBD3 / RFU, TMA16 / Fold change vs veh, TMA16 / RFU, RWDD3 / Fold change vs veh, RWDD3 / RFU, BCAT1 / Fold change vs veh, BCAT1 / RFU, EDEM3 / Fold change vs veh, EDEM3 / RFU, TMEM33 / Fold change vs veh, TMEM33 / RFU, WDR75 / Fold change vs veh, WDR75 / RFU, AHCTF1 / Fold change vs veh, AHCTF1 / RFU, TFRC / Fold change vs veh, TFRC / RFU, ZDHHC17 / Fold change vs veh, ZDHHC17 / RFU, NOM1 / Fold change vs veh, NOM1 / RFU, ARL8B / Fold change vs veh, ARL8B / RFU, ZBTB11 / Fold change vs veh, ZBTB11 / RFU, TAMM41 / Fold change vs veh, TAMM41 / RFU, KIAA1704 /// LOC100996395 / Fold change vs veh, KIAA1704 /// LOC100996395 / RFU, ING1 / Fold change vs veh, ING1 / RFU, TRMT61B / Fold change vs veh, TRMT61B / RFU, FUBP3 / Fold change vs veh, FUBP3 / RFU, TP53 / Fold change vs veh, TP53 / RFU, TNKS2 / Fold change vs veh, TNKS2 / RFU, ZFP14 / Fold change vs veh, ZFP14 / RFU, ACTR2 / Fold change vs veh, ACTR2 / RFU, PPP3R1 / Fold change vs veh, PPP3R1 / RFU, PIK3R1 / Fold change vs veh, PIK3R1 / RFU, HNRNPA1 / Fold change vs veh, HNRNPA1 / RFU, RNF170 / Fold change vs veh, RNF170 / RFU, ZNF28 / Fold change vs veh, ZNF28 / RFU, RNGTT / Fold change vs veh, RNGTT / RFU, OGT / Fold change vs veh, OGT / RFU, BRD1 / Fold change vs veh, BRD1 / RFU, MARS / Fold change vs veh, MARS / RFU, ZNF655 / Fold change vs veh, ZNF655 / RFU, FAHD1 / Fold change vs veh, FAHD1 / RFU, BDP1 / Fold change vs veh, BDP1 / RFU, LRRCC1 / Fold change vs veh, LRRCC1 / RFU, ARID1A / Fold change vs veh, ARID1A / RFU, ZNF146 / Fold change vs veh, ZNF146 / RFU, ZNF330 / Fold change vs veh, ZNF330 / RFU, GPN3 / Fold change vs veh, GPN3 / RFU, C9orf123 / Fold change vs veh, C9orf123 / RFU, N4BP2L2 / Fold change vs veh, N4BP2L2 / RFU, ARFIP1 / Fold change vs veh, ARFIP1 / RFU, FAM179B / Fold change vs veh, FAM179B / RFU, BCL10 / Fold change vs veh, BCL10 / RFU, UHRF1BP1L / Fold change vs veh, UHRF1BP1L / RFU, BET1 / Fold change vs veh, BET1 / RFU, CNOT2 / Fold change vs veh, CNOT2 / RFU, ZNF268 / Fold change vs veh, ZNF268 / Fold change vs veh, ZNF507 / RFU, DGCR2 / Fold change vs veh, DGCR2 / RFU, WDSUB1 / Fold change vs veh, WDSUB1 / Fold change vs veh, HSP90B1 /// MIR3652 / RFU, ADSS / Fold change vs veh, ADSS / RFU, GK / Fold change vs veh, GK / RFU, ZNF148 / Fold change vs veh, ZNF148 / RFU, TAF9 / Fold change vs veh, TAF9 / RFU, SLC1A5 / Fold change vs veh, SLC1A5 / RFU, SLMO2 / Fold change vs veh, SLMO2 / RFU, ABCC4 / Fold change vs veh, ABCC4 / RFU, LOC101060439 /// RAP1B / Fold change vs veh, LOC101060439 /// RAP1B / RFU, RFX7 / Fold change vs veh, RFX7 / RFU, GTPBP10 / Fold change vs veh, GTPBP10 / RFU, CNEP1R1 / Fold change vs veh, CNEP1R1 / RFU, BIVM-ERCC5 /// ERCC5 / Fold change vs veh, BIVM-ERCC5 /// ERCC5 / RFU, ILF3 / Fold change vs veh, ILF3 / RFU 11762660_at / Fold change /veh 11762660_at / RFU VCAN (11757783_s_at) / Fold change /veh VCAN (11757783_s_at) / RFU DDX43 (11728927_at) / Fold change /veh DDX43 (11728927_at) / RFU KRT8 (11758188_x_at) / Fold change /veh KRT8 (11758188_x_at) / RFU NKD1 (11759106_at) / Fold change /veh NKD1 (11759106_at) / RFU SRD5A1 (11742802_a_at) / Fold change /veh SRD5A1 (11742802_a_at) / RFU TPSAB1 /// TPSB2 (11721975_s_at) / Fold change /veh TPSAB1 /// TPSB2 (11721975_s_at) / RFU GSTM3 (11746129_a_at) / Fold change /veh GSTM3 (11746129_a_at) / RFU IL23R (11737362_x_at) / Fold change /veh IL23R (11737362_x_at) / RFU TMEM51 (11727254_a_at) / Fold change /veh TMEM51 (11727254_a_at) / RFU PIWIL2 (11732686_x_at) / Fold change /veh PIWIL2 (11732686_x_at) / RFU ORM1 (11744905_x_at) / Fold change /veh ORM1 (11744905_x_at) / RFU CCDC152 (11743942_at) / Fold change /veh CCDC152 (11743942_at) / RFU ECM1 (11717891_a_at) / Fold change /veh ECM1 (11717891_a_at) / RFU IL23R (11748794_a_at) / Fold change /veh IL23R (11748794_a_at) / RFU TNFAIP8L3 (11732012_x_at) / Fold change /veh TNFAIP8L3 (11732012_x_at) / RFU MBOAT4 (11741988_at) / Fold change /veh MBOAT4 (11741988_at) / RFU 11764193_at / Fold change /veh 11764193_at / RFU TMEM53 (11763286_at) / Fold change /veh TMEM53 (11763286_at) / RFU MAGEB2 (11727129_at) / Fold change /veh MAGEB2 (11727129_at) / RFU TMEM200A (11744735_a_at) / Fold change /veh TMEM200A (11744735_a_at) / RFU CCDC152 (11751479_a_at) / Fold change /veh CCDC152 (11751479_a_at) / RFU FAM211A (11726209_a_at) / Fold change /veh FAM211A (11726209_a_at) / RFU RGS16 (11746705_a_at) / Fold change /veh RGS16 (11746705_a_at) / RFU VCAN (11755009_s_at) / Fold change /veh VCAN (11755009_s_at) / RFU RHOB (11743442_s_at) / Fold change /veh RHOB (11743442_s_at) / RFU RGS16 (11720943_a_at) / Fold change /veh RGS16 (11720943_a_at) / RFU RGS16 (11720944_at) / Fold change /veh RGS16 (11720944_at) / RFU, VPS4B / Fold change vs veh, VPS4B / RFU, CREB1 / Fold change vs veh, CREB1 / RFU, DNAJC13 / Fold change vs veh, DNAJC13 / RFU, GNAQ / Fold change vs veh, GNAQ / RFU, CDK5R1 / Fold change vs veh, CDK5R1 / RFU, ZRANB3 / Fold change vs veh, ZRANB3 / RFU, CUL4A / Fold change vs veh, CUL4A / RFU, CCNY / Fold change vs veh, CCNY / RFU, UFL1 / Fold change vs veh, UFL1 / RFU, COG3 / Fold change vs veh, COG3 / RFU, DIAPH2 / Fold change vs veh, DIAPH2 / RFU, SKA2 / Fold change vs veh, SKA2 / RFU, AFF3 / Fold change vs veh, AFF3 / RFU, LMF1 / Fold change vs veh, LMF1 / RFU, IPO11 / Fold change vs veh, IPO11 / RFU, DFFB / Fold change vs veh, DFFB / RFU, FOXP1 / Fold change vs veh, FOXP1 / RFU, CARD8 / Fold change vs veh, CARD8 / RFU, STRN3 / Fold change vs veh, STRN3 / RFU, ADK / Fold change vs veh, ADK / RFU, RASSF2 / Fold change vs veh, RASSF2 / RFU, WIPF1 / Fold change vs veh, WIPF1 / RFU, LARP1B / Fold change vs veh, LARP1B / RFU, RASA1 / Fold change vs veh, RASA1 / RFU, RB1 / Fold change vs veh, RB1 / RFU, PPFIA1 / Fold change vs veh, PPFIA1 / RFU, MAT2A / Fold change vs veh, MAT2A / RFU, CCT5 / Fold change vs veh, CCT5 / RFU, WDR92 / Fold change vs veh, WDR92 / RFU, CUX1 / Fold change vs veh, CUX1 / RFU, TTC7A / Fold change vs veh, TTC7A / RFU, TMEM135 / Fold change vs veh, TMEM135 / RFU, DEPTOR / Fold change vs veh, DEPTOR / RFU, CPM / Fold change vs veh, CPM / RFU, DNAJB6 / Fold change vs veh, DNAJB6 / RFU, CACNA2D3 / Fold change vs veh, CACNA2D3 / RFU, DTX4 / Fold change vs veh, DTX4 / RFU, TFCP2 / Fold change vs veh, TFCP2 / RFU, GMCL1 /// GMCL1P1 / Fold change vs veh, GMCL1 /// GMCL1P1 / RFU, AEBP2 / Fold change vs veh, AEBP2 / RFU, SNHG1 /// SNORD22 /// SNORD25 /// SNORD26 /// SNORD27 /// SNORD28 /// SNORD29 /// SNORD31 / Fold change vs veh, SNHG1 /// SNORD22 /// SNORD25 /// SNORD26 /// SNORD27 /// SNORD28 /// SNORD29 /// SNORD31 / Fold change (Aza/veh), C12orf56 (ProbeSet 11735607_a_at) / Fold change (ACY-1035/veh), C12orf56 (ProbeSet 11735607_a_at) / Fold change (Aza/veh), FGFR1OP (ProbeSet 11751329_s_at) / Fold change (ACY-1035/veh), FGFR1OP (ProbeSet 11751329_s_at) / Fold change (Aza/veh), VPS36 (ProbeSet 11739960_a_at) / Fold change (ACY-1035/veh), VPS36 (ProbeSet 11739960_a_at) / RFU SYPL1 (11715823_x_at) / Fold change /veh SYPL1 (11715823_x_at) / RFU IGFBP7 (11715501_s_at) / Fold change /veh IGFBP7 (11715501_s_at) / RFU REEP3 (11722064_at) / Fold change /veh REEP3 (11722064_at) / RFU IGLL1 (11728026_x_at) / Fold change /veh IGLL1 (11728026_x_at): dose or concentration left out as unconfirmed
Conditions: MV-4-11 cells, 48 hours

## Nc1ccc(-c2cccs2)cc1NC(=O)c1ccc2c(c1)cc(C1CC1)n2CCN1CCOCC1 [ACY-1035]
  RFU LOC100653217 /// NTM (11731650_a_at): 9.86 RFU

— paper PMC5218480 (PLoS ONE, 2017)
